These compounds were tested against T1, IKBKB (IKKβ) (Homo sapiens, UniProt O14920) (assay: IKKβ Enzyme Assay (Z'-LYTE, Invitrogen)). Settings: ATP at or close to Km; read-out: Inhibitor activity versus IKKβ.
T1 construct: purchased Invitrogen (Paisley, UK)
T1 sequence (O14920 1-756): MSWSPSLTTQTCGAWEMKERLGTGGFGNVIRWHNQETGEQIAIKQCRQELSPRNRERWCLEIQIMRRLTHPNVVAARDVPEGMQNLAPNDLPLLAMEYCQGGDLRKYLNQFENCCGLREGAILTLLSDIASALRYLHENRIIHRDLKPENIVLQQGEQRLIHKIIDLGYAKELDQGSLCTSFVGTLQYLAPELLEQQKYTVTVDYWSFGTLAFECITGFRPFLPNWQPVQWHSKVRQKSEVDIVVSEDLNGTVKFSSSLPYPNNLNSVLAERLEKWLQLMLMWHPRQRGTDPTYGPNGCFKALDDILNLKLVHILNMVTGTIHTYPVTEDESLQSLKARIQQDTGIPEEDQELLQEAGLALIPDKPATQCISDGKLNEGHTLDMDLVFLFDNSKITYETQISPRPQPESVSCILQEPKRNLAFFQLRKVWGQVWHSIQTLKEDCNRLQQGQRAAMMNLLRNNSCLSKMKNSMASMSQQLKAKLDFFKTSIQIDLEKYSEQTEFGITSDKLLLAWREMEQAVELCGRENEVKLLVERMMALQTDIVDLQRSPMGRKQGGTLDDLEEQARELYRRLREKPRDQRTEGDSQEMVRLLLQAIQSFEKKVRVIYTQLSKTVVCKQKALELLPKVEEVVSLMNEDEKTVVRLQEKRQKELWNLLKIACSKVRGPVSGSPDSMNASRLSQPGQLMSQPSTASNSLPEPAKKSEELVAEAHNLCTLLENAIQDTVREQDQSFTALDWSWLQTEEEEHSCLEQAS
Type: biochemical
Method: The ability of compounds to inhibit IKKβ kinase activity was measured in an assay performed by Invitrogen (Paisley, UK). The Z′-LYTE™ biochemical assay employs a fluorescence-based, coupled-enzyme format and is based on the differential sensitivity of phosphorylated and non-phosphorylated peptides to proteolytic cleavage. The peptide substrate is labelled with two fluorophores—one at each end—that make up a FRET pair. In the primary reaction, the kinase transfers the gamma-phosphate of ATP to a single serine or threonine residue in a synthetic FRET-peptide. In the secondary reaction, a site-specific protease recognizes and cleaves non-phosphorylated FRET-peptides. Phosphorylation of FRET-peptides suppresses cleavage by the Development Reagent. Cleavage disrupts FRET between the donor (i.e., coumarin) and acceptor (i.e. fluorescein) fluorophores on the FRET-peptide, whereas uncleaved, phosphorylated FRET-peptides maintain FRET. A […] method, which calculates the ratio (the Emission Ratio) of donor emission to acceptor emission after excitation of the donor fluorophore at 400 nm, is used to quantitate reaction progress.
The final 10 μL Kinase Reaction consists of 0.9-8.0 ng IKBKB (IKKβ), 2 μM Ser/Thr 05 Peptide and ATP in 50 mM HEPES pH 7.5, 0.01% BRIJ-35, 10 mM MgCl2, 1 mM EGTA. The assay is performed at an ATP concentration at, or close to the Km. After the 60 minute Kinase Reaction incubation at room temperature, 5 μL of a 1:128 dilution of Development Reagent is added. The assay plate is incubated for a further 60 minutes at room temperature and read on a fluorescence plate reader.
Duplicate data points are generated from a ⅓ log dilution series of a stock solution of test compound in DMSO. Nine dilutions steps are made from a top concentration of 10 μM, and a ‘no compound’ blank is included. Data is collected and analysed using XLfit software from IDBS. The dose response curve is curve fitted to model number 205 (sigmoidal dose-response model). From the curve generated, the concentration giving 50% inhibition is determined and reported.

Row | SMILES | IC50
1 | CC(C)C[C@H](NC/C=C/c1ccc(-c2cc(C(N)=O)c(NC(N)=O)s2)cc1F)C(=O)O [Example 71, N-[(2E)-3-{4-[4-carbamoyl-5-(carbamoylamino)thiophen-2-yl]-2-fluorophenyl}prop-2-en-1-yl]-L-leucine] | < 1000 nM
2 | NC(=O)Nc1sc(-c2ccc(CN[C@@H](Cc3ccccc3)C(=O)O)cc2)cc1C(N)=O [Example 52, N-{-4-[4-Carbamoyl-5-(carbamoylamino)-2-thienyl]benzyl}-L-phenylalanine] | < 1000 nM
3 | CC(C)C[C@H](NC/C=C/c1ccc(-c2cc(C(N)=O)c(NC(N)=O)s2)c(F)c1)C(=O)O [Example 74, N-[(2E)-3-{4-[4-carbamoyl-5-(carbamoylamino)thiophen-2-yl]-3-fluorophenyl}prop-2-en-1-yl]-L-leucine] | < 1000 nM
4 | CC(C)C[C@H](NC/C=C/c1ccc(-c2cc(C(N)=O)c(NC(N)=O)s2)c(C(F)(F)F)c1)C(=O)O [Example 79, N-[(2E)-3-{4-[4-carbamoyl-5-(carbamoylamino)thiophen-2-yl]-3-(trifluoromethyl)phenyl}prop-2-en-1-yl]-L-leucine] | 1000 to 5000 nM
5 | CC(C)C[C@H](NCCCCCOc1ccc(-c2cc(C(N)=O)c(NC(N)=O)s2)c(Cl)c1)C(=O)O [Example 68, N-(5-{4-[4-Carbamoyl-5-(carbamoylamino)-2-thienyl]-3-chlorophenoxy}pentyl)-L-leucine] | < 1000 nM
6 | CC(C)C[C@H](NCc1cccc(-c2cc(C(N)=O)c(NC(N)=O)s2)c1)C(=O)O [Example 57, N-{3-[4-Carbamoyl-5-(carbamoylamino)-2-thienyl]benzyl}-L-leucine] | < 1000 nM
7 | Cc1cc(/C=C/CN[C@@H](CC(C)C)C(=O)O)ccc1-c1cc(C(N)=O)c(NC(N)=O)s1 [Example 73, N-[(2E)-3-{4-[4-carbamoyl-5-(carbamoylamino)thiophen-2-yl]-3-methylphenyl}prop-2-en-1-yl]-L-leucine] | < 1000 nM
8 | CC(C)C[C@H](NCCc1ccc(-c2cc(C(N)=O)c(NC(N)=O)s2)cc1)C(=O)O [Example 63] | < 1000 nM
9 | CC(C)C[C@H](NC/C=C/c1ccc(-c2cc(C(N)=O)c(NC(N)=O)s2)c(Cl)c1)C(=O)O [Example 75, N-[(2E)-3-{4-[4-carbamoyl-5-(carbamoylamino)thiophen-2-yl]-3-chlorophenyl}prop-2-en-1-yl]-L-leucine] | < 1000 nM
10 | NC(=O)Nc1sc(-c2ccc(CN[C@@H](C(=O)O)c3ccccc3)cc2)cc1C(N)=O [Example 53, (2R)-({-4-[4-Carbamoyl-5-(carbamoylamino)-2-thienyl]benzyl}amino)(phenyl)acetic acid] | < 1000 nM
11 | CC(C)C[C@H](NCCCCCOc1ccc(-c2cc(C(N)=O)c(NC(N)=O)s2)cc1)C(=O)O [Example 67] | < 1000 nM
12 | CC(C)C[C@H](NCCc1cc(-c2cc(C(N)=O)c(NC(N)=O)s2)ccc1F)C(=O)O [Example 90, N-(2-{5-[4-carbamoyl-5-(carbamoylamino)thiophen-2-yl]-2-fluorophenyl}ethyl)-L-leucine] | < 1000 nM
13 | CC(C)C[C@H](NC/C=C/c1ccc(-c2cc(C(N)=O)c(NC(N)=O)s2)cc1)C(=O)O [Example 69, N-[(2E)-3-{4-[4-Carbamoyl-5-(carbamoylamino)-2-thienyl]phenyl}prop-2-en-1-yl]-L-leucine] | < 1000 nM
14 | CC(C)C[C@H](NCCc1ccc(-c2cc(C(N)=O)c(NC(N)=O)s2)c(Cl)c1)C(=O)O [Example 64, N-(2-{-4-[4-Carbamoyl-5-(carbamoylamino)-2-thienyl]-3-chlorophenyl}ethyl)-L-leucine] | < 1000 nM

More lines, now with the values ahead:

Row | IC50 | SMILES
15 | < 1000 nM | Cc1cc(-c2cc(C(N)=O)c(NC(N)=O)s2)ccc1CN[C@@H](CC(C)C)C(=O)O [Example 56, N-{4-[4-carbamoyl-5-(carbamoylamino)-2-thienyl]-2-methylbenzyl}-L-leucine]
16 | < 1000 nM | CC(C)C[C@H](NC/C=C/c1c(F)cc(-c2cc(C(N)=O)c(NC(N)=O)s2)cc1F)C(=O)O [Example 78, N-[(2E)-3-{4-[4-carbamoyl-5-(carbamoylamino)thiophen-2-yl]-2,6-difluorophenyl}prop-2-en-1-yl]-L-leucine]
17 | < 1000 nM | C[C@@H](O)[C@H](NCc1cccc(-c2cc(C(N)=O)c(NC(N)=O)s2)c1)C(=O)O [Example 61, N-{3-[4-carbamoyl-5-(carbamoylamino)thiophen-2-yl]benzyl}-L-threonine]
18 | < 1000 nM | CC(C)C[C@H](NCCCOc1ccc(-c2cc(C(N)=O)c(NC(N)=O)s2)c(Cl)c1)C(=O)O [Example 66, N-(3-{4-[4-Carbamoyl-5-(carbamoylamino)-2-thienyl]-3-chlorophenoxy}propyl)-L-leucine]
19 | < 1000 nM | NC(=O)Nc1sc(-c2cccc(CN[C@H](C(=O)O)C3CCCCC3)c2)cc1C(N)=O [Example 59, (2S)-({3-[4-carbamoyl-5-(carbamoylamino)-2-thienyl]benzyl}amino)(cyclohexyl)acetic acid]
20 | < 1000 nM | CC(C)C[C@H](NC/C=C/c1ccc(-c2cc(C(N)=O)c(NC(N)=O)s2)cc1C(F)(F)F)C(=O)O [Example 76, N-[(2E)-3-{4-(4-carbamoyl-5-(carbamoylamino)thiophen-2-yl]-2-(trifluoromethyl)phenyl}prop-2-en-1-yl]-L-leucine]
21 | < 1000 nM | CC(C)(C)OC[C@H](NC/C=C/c1ccc(-c2cc(C(N)=O)c(NC(N)=O)s2)cc1)C(=O)O [Example 82, O-tert-butyl-N-[(2E)-3-{4-[4-carbamoyl-5-(carbamoylamino)thiophen-2-yl]phenyl}prop-2-en-1-yl]-L-serine]
22 | < 1000 nM | CC(C)C[C@H](NCc1ccc(-c2cc(C(N)=O)c(NC(N)=O)s2)c(Cl)c1)C(=O)O [Example 55, N{4-[4-carbamoyl-5-(carbamoylamino)-2-thienyl]-3-chlorobenzyl}-L-leucine]
23 | < 1000 nM | NC(=O)Nc1sc(-c2ccc(CN[C@H](C(=O)O)c3ccccc3)cc2)cc1C(N)=O [Example 50, (2S)-({4-[4-carbamoyl-5-(carbamoylamino)-2-thienyl]benzyl}amino)(phenyl)acetic acid]
24 | < 1000 nM | CC(C)(C)OC[C@H](NCc1cccc(-c2cc(C(N)=O)c(NC(N)=O)s2)c1)C(=O)O [Example 60, O-tert-butyl-N-{3-[4-carbamoyl-5-(carbamoylamino)thiophen-2-yl]benzyl}-L-serine]
25 | < 1000 nM | CC(C)C[C@H](NCc1ccc(-c2cc(C(N)=O)c(NC(N)=O)s2)cc1)C(=O)O [Example 51, N-{4-[4-Carbamoyl-5-(carbamoylamino)-2-thienyl]benzyl}-L-leucine]
26 | < 1000 nM | CC(C)C[C@H](NCCc1cccc(-c2cc(C(N)=O)c(NC(N)=O)s2)c1)C(=O)O [Example 87, N-(2-{3-[4-carbamoyl-5-(carbamoylamino)-2-thienyl]phenyl}ethyl)-L-leucine]
27 | < 1000 nM | NC(=O)Nc1sc(-c2ccc(CN[C@H](C(=O)O)c3ccc4ccccc4c3)cc2)cc1C(N)=O [Example 54, (2S)-({-4-[4-Carbamoyl-5-(carbamoylamino)-2-thienyl]benzyl}amino)(2-naphthyl)acetic acid]
28 | < 1000 nM | CC(C)C[C@H](NC/C=C/c1ccc(-c2cc(C(N)=O)c(NC(N)=O)s2)cc1Cl)C(=O)O [Example 72, N-[(2E)-3-{4-[4-carbamoyl-5-(carbamoylamino)thiophen-2-yl]-2-chlorophenyl}prop-2-en-1-yl]-L-leucine]
29 | < 1000 nM | CC(C)C[C@@H](NC/C=C/c1ccc(-c2cc(C(N)=O)c(NC(N)=O)s2)cc1)C(=O)O [Example 84, N-[(2E)-3-{4-[4-carbamoyl-5-(carbamoylamino)-2-thienyl]phenyl}prop-2-en-1-yl]-D-leucine]
